In patent US20240279230A1, “CRYSTALLINE FORMS OF A HER2 INHIBITOR” (Boehringer Ingelheim International GmbH, priority 2022, published 2024):
Entries after “also recorded” stand apart in the source; their conditions may differ.

Assays:
Format in all cases: physicochemical
[1] = Thermogravimetric Analysis (TGA); details: 20° C./min
Procedure: The methodology for this can be as follows. Solid compounds (˜5 mg) are placed in an aluminium pan and sealed. The instrument used for the analysis is a TA Instruments TGA 550. The same sample lots from DSC testing are used for TGA testing. Processing is completed using TRIOS software.

[2] = Chemical stability of solid state forms under temperature/humidity stress, related substances by HPLC at 252 nm; parameters: Impurity I / Impurity A / Impurity B / Impurity C / Impurity D / Impurity E / Impurity F / Impurity G / Impurity H: unit not given here
Description: To do so, control samples are stored refrigerated in the presence of desiccant for the duration of the study and measured simultaneously with stressed samples by HPLC at a wavelength of 252 nm.

[3] = Dynamic Vapor Sorption (DVS) sorption isotherms, hygroscopic behaviour; details: for Hygroscopicity: DVS classification; for Δm (0-80%), moisture absorbed at 80% RH / Δm (0-90%), maximum water uptake: DVS, 25.0 ±1.0° C.; for Δm (0-90%), maximum water uptake: up to 90% RH; for Hysteresis: between sorption and desorption curves
Procedure: The methodology for this can be as follows. The mass of the solids is monitored as the relative humidity (RH) was deliberately changed. The RH is cycled twice from 0% to 90% to 0% in 10% steps. The temperature during measurement is kept constantly at (25.0 ±1.0° C.) Each step is held until mass stability was achieved. A camera inside the instrument captured an image at the conclusion of each stage, allowing for the observation of any visual changes in the solid form during the analysis.

[4] = Polymorphic stability of form III and form IV under stress storage, PXRD; details: 21 days;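 also: open storage at 90 °C with 3% RH or 78% RH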
Procedure: A Bruker D2 Phaser X-Ray Diffractometer (XRD, EQ-SSRD-XRD-01) can be used for characterizing the samples. Raw results are evaluated using DIFFRAC.EVA (Bruker, V5.0) software. The Kα2 contribution was stripped, and a peak search was performed using peak search parameters (width 0.302 and threshold 1.0).
A test sample (approximately 0.3 g) is representatively subsampled into an agate-type mortar and pestle. Sample is ground for approximately one minute to achieve a fine homogenous powder. Sample is then transferred into a stainless-steel sample holder fitted with a zero-diffraction plate (ZDP). The sample holder is then levelled off with a glass slide to create a flat sample surface level with the sample holder.

[5] = Control 1, stored refrigerated with desiccant
[6] = Control 2, stored refrigerated with desiccant
[7] = Control 3, stored refrigerated with desiccant

- TGA change in mass ([1]; Decomposition): 49.938%
- TGA onset ([1]; Decomposition): 420.14 °C
- TGA change in mass ([1]; Small mass loss event): 1.285%
- TGA end ([1]; Small mass loss event): 243.82 °C
- TGA onset ([1]; Small mass loss event): 224.60 °C
- TGA change in mass ([1]; Small mass loss event, listed as form IV): around 1%
- Color change after stressing ([2]; 60-90° C., 3-79% RH, up to 21 days): No color changes
- Impurity A ([2]; 60° C./75% RH, 17 days): 0.111
- Impurity B ([2]; 60° C./75% RH, 17 days): 0.008
- Impurity C ([2]; 60° C./75% RH, 17 days): 0.066
- Impurity D ([2]; 60° C./75% RH, 17 days): 0.014
- Impurity E ([2]; 60° C./75% RH, 17 days): 0.074
- Impurity F ([2]; 60° C./75% RH, 17 days): 0.012
- Impurity G ([2]; 60° C./75% RH, 17 days): 0.037
- Impurity H ([2]; 60° C./75% RH, 17 days): 0.132
- Impurity I ([2]; 60° C./75% RH, 17 days): 0.012
- Impurity A ([2]; 70° C./62% RH, 17 days): 0.113
- Impurity B ([2]; 70° C./62% RH, 17 days): 0.010
- Impurity C ([2]; 70° C./62% RH, 17 days): 0.065
- Impurity D ([2]; 70° C./62% RH, 17 days): 0.022
- Impurity E ([2]; 70° C./62% RH, 17 days): 0.069
- Impurity F ([2]; 70° C./62% RH, 17 days): 0.013
- Impurity G ([2]; 70° C./62% RH, 17 days): 0.038
- Impurity H ([2]; 70° C./62% RH, 17 days): 0.133
- Impurity I ([2]; 70° C./62% RH, 17 days): 0.012
- Impurity A ([2]; 75° C./41% RH, 17 days): 0.113
- Impurity B ([2]; 75° C./41% RH, 17 days): 0.010
- Impurity C ([2]; 75° C./41% RH, 17 days): 0.072
- Impurity D ([2]; 75° C./41% RH, 17 days): 0.015
- Impurity E ([2]; 75° C./41% RH, 17 days): 0.078
- Impurity F ([2]; 75° C./41% RH, 17 days): 0
- Impurity G ([2]; 75° C./41% RH, 17 days): 0.027
- Impurity H ([2]; 75° C./41% RH, 17 days): 0.129
- Impurity I ([2]; 75° C./41% RH, 17 days): 0.010
- Impurity A ([2]; 75° C./79% RH, 10 days): 0.103
- Impurity B ([2]; 75° C./79% RH, 10 days): 0.010
- Impurity C ([2]; 75° C./79% RH, 10 days): 0.065
- Impurity D ([2]; 75° C./79% RH, 10 days): 0.017
- Impurity E ([2]; 75° C./79% RH, 10 days): 0.073
- Impurity F ([2]; 75° C./79% RH, 10 days): 0.016
- Impurity G ([2]; 75° C./79% RH, 10 days): 0.038
- Impurity H ([2]; 75° C./79% RH, 10 days): 0.130
- Impurity I ([2]; 75° C./79% RH, 10 days): 0.012
- Impurity A ([2]; 80° C./11% RH, 17 days): 0.109
- Impurity B ([2]; 80° C./11% RH, 17 days): 0.009
- Impurity C ([2]; 80° C./11% RH, 17 days): 0.073
- Impurity D ([2]; 80° C./11% RH, 17 days): 0.013
- Impurity E ([2]; 80° C./11% RH, 17 days): 0.086
- Impurity F ([2]; 80° C./11% RH, 17 days): 0
- Impurity G ([2]; 80° C./11% RH, 17 days): 0.033
- Impurity H ([2]; 80° C./11% RH, 17 days): 0.126
- Impurity I ([2]; 80° C./11% RH, 17 days): 0.011
- Impurity A ([2]; 80° C./61% RH, 10 days): 0.111
- Impurity B ([2]; 80° C./61% RH, 10 days): 0.008
- Impurity C ([2]; 80° C./61% RH, 10 days): 0.065
- Impurity D ([2]; 80° C./61% RH, 10 days): 0.021
- Impurity E ([2]; 80° C./61% RH, 10 days): 0.070
- Impurity F ([2]; 80° C./61% RH, 10 days): 0.015
- Impurity G ([2]; 80° C./61% RH, 10 days): 0.039
- Impurity H ([2]; 80° C./61% RH, 10 days): 0.131
- Impurity I ([2]; 80° C./61% RH, 10 days): 0.011
- Impurity A ([2]; 90° C./3% RH, 17 days): 0.104
- Impurity B ([2]; 90° C./3% RH, 17 days): 0.011
- Impurity C ([2]; 90° C./3% RH, 17 days): 0.070
- Impurity D ([2]; 90° C./3% RH, 17 days): 0.018
- Impurity E ([2]; 90° C./3% RH, 17 days): 0.087
- Impurity F ([2]; 90° C./3% RH, 17 days): 0.008
- Impurity G ([2]; 90° C./3% RH, 17 days): 0.050
- Impurity H ([2]; 90° C./3% RH, 17 days): 0.125
- Impurity I ([2]; 90° C./3% RH, 17 days): 0.011
- Impurity A ([2]; 90° C./41% RH, 10 days): 0.112
- Impurity B ([2]; 90° C./41% RH, 10 days): 0.010
- Impurity C ([2]; 90° C./41% RH, 10 days): 0.065
- Impurity D ([2]; 90° C./41% RH, 10 days): 0.021
- Impurity E ([2]; 90° C./41% RH, 10 days): 0.076
- Impurity F ([2]; 90° C./41% RH, 10 days): 0.011
- Impurity G ([2]; 90° C./41% RH, 10 days): 0.044
- Impurity H ([2]; 90° C./41% RH, 10 days): 0.127
- Impurity I ([2]; 90° C./41% RH, 10 days): 0.012
- Impurity A ([2]; 90° C./78% RH, 17 days): 0.098
- Impurity B ([2]; 90° C./78% RH, 17 days): 0.011
- Impurity C ([2]; 90° C./78% RH, 17 days): 0.068
- Impurity D ([2]; 90° C./78% RH, 17 days): 0.015
- Impurity E ([2]; 90° C./78% RH, 17 days): 0.080
- Impurity F ([2]; 90° C./78% RH, 17 days): 0.014
- Impurity G ([2]; 90° C./78% RH, 17 days): 0.043
- Impurity H ([2]; 90° C./78% RH, 17 days): 0.125
- Impurity I ([2]; 90° C./78% RH, 17 days): 0.010
- Impurity A [2, 5]: 0.102
- Impurity B [2, 5]: 0.009
- Impurity C [2, 5]: 0.064
- Impurity D [2, 5]: 0.011
- Impurity E [2, 5]: 0.074
- Impurity F [2, 5]: 0.015
- Impurity G [2, 5]: 0.037
- Impurity H [2, 5]: 0.129
- Impurity I [2, 5]: 0.012
- Impurity A [2, 6]: 0.091
- Impurity B [2, 6]: 0.009
- Impurity C [2, 6]: 0.064
- Impurity D [2, 6]: 0.012
- Impurity E [2, 6]: 0.070
- Impurity F [2, 6]: 0.013
- Impurity G [2, 6]: 0.032
- Impurity H [2, 6]: 0.130
- Impurity I [2, 6]: 0.012
- Impurity A [2, 7]: 0.114
- Impurity B [2, 7]: 0.009
- Impurity C [2, 7]: 0.070
- Impurity D [2, 7]: 0.013
- Impurity E [2, 7]: 0.071
- Impurity F [2, 7]: 0
- Impurity G [2, 7]: 0.023
- Impurity H [2, 7]: 0.129
- Impurity I [2, 7]: 0.012
- Chemical stability in the solid state ([2]; up to 21 days at 90° C./78% RH): chemically very stable
- Change in visual appearance during the humidity cycles ([3]; DVS camera images): No change in the visual appearance
- Hygroscopicity [3]: slightly hygroscopic
- Hygroscopicity ([3]; listed as form IV): slightly hygroscopic
- Δm (0-80%), moisture absorbed at 80% RH [3]: 0.4 wt %
- Δm (0-80%), moisture absorbed at 80% RH ([3]; listed as form IV): 0.4 wt %
- Δm (0-90%), maximum water uptake [3]: 0.5 wt %
- Δm (0-90%), maximum water uptake ([3]; listed as form IV): 0.5 wt %
- Hysteresis [3]: no
- Hysteresis ([3]; listed as form IV): lack of hysteresis
Compound: C=CC(=O)NC1CCN(c2ncc3ncnc(Nc4ccc(Oc5ccc6c(c5)ncn6C)c(C)c4)c3n2)CC1 [Form IV, N-{1-[8-({3-methyl-4-[(1-methyl-1H-1,3-benzodiazol-5-yl)oxy]phenyl}amino)-[1,3]diazino[5,4-d]pyrimidin-2-yl]piperidin-4-yl}prop-2-enamide]
- Increase in related substances ([2]; accelerated stress conditions, up to 21 days at 90° C./78% RH): no significant increase in any related substance
- Phase change during DVS experiment ([3]; RH cycled twice 0% to 90% to 0%): no indication of irreversible phase conversion or hydrate formation; also recorded: no irreversible phase changes
- Polymorphic stability by PXRD ([4]; open storage 90° C./3% RH): stable and conformed to form IV reference standard; also recorded: neither form underwent phase changes
- Polymorphic stability by PXRD ([4]; open storage 90° C./78% RH): stable and conformed to form IV reference standard; also recorded: neither form underwent phase changes
